In series [1] the target is somatostatin receptors on AR42J cells (rat). Briefly: apparent IC50, competitive binding on AR42J cells against 111In(DTPA-octreotide), RT 3 h.
A short description of series [2]: Stability of ^18F-labeled IMP 466 in human serum (RP-HPLC). The series is classed as in vitro ADME. Particulars: 37° C., 4 h. On the procedure:
Ten μL of the ^18F-labeled IMP 466 was incubated in 500 μL of freshly collected human serum and incubated for 4 h at 37° C. Acetonitrile was added and the mixture was vortexed followed by centrifugation at 1000×g for 5 min to precipitate serum proteins. The supernatant was analyzed on RP-HPLC as described above.

The test system of series [3] is CEA-expressing LS174T tumors. Conditions: mouse, in vivo.
Description: One or two hours after the injection of the radiolabeled peptide, PET/CT images were acquired and the biodistribution of the radiolabeled peptide was determined. Uptake in the LS174T tumor was compared with that in an s.c. CEA-negative SK-RC 52 tumor.
Experiments were performed in male nude BALB/c mice (6-8 weeks old), weighing 20-25 grams. Mice received a subcutaneous injection with 0.2 mL of a suspension of 1×10^6 LS174T-cells, a CEA-expressing human colon carcinoma cell line (American Type Culture Collection, Rockville, Md., USA).
The percentage-injected dose per gram tissue (% ID/g) was calculated.
LS174T tumors were pretargeted by injecting 1.0, 2.5, 5.0 or 10.0 nmol TF2 (160, 400, 800 or 1600 μg).
In the right flank an s.c. LS174T tumor was induced, while at the same time in the same mice 1×10^6 SK-RC 52 cells were inoculated in the left flank to induce a CEA-negative tumor.
Mice were fasted during 10 hours prior to the injection and anaesthetized and kept warm at 37° C. until euthanasia, 1 h postinjection.
In a further series the target is RIIα dimers (Homo sapiens, UniProt P13861). Particulars: read-out: affinity for RIIα dimers; cited from earlier work.
RIIα dimers, sequence (P13861 whole entry): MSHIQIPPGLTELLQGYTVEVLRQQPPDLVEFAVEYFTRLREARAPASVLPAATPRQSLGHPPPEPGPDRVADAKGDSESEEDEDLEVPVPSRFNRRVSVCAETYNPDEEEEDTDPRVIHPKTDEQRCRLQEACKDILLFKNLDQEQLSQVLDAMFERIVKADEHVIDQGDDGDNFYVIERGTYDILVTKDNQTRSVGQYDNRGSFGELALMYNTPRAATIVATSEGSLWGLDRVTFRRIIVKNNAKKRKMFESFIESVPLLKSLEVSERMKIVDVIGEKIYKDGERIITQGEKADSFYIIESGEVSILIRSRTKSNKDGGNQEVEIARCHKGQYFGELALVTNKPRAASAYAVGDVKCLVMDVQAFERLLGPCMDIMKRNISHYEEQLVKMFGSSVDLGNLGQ
In a further series the test system is AR42J tumors. Kind of series: Biodistribution in mice with s.c. AR42J tumors. Conditions: 2 h p.i. It counts as in vivo, nude BALB/c mice. On the procedure: Male nude BALB/c mice (6-8 weeks) were injected subcutaneously in the right flank with 0.2 mL AR42J cell suspension of 10^7 cells/mL. Approximately two weeks after tumor cell inoculation when tumors were 5-8 mm in diameter, 370 kBq ^18F- or ^68Ga-labeled IMP 466 was administered intravenously (n=5). Separate groups (n=5) were injected with a 1,000-fold molar excess of unlabeled IMP 466. One group of three mice was injected with unchelated [Al^18F]. All mice were killed by CO2/O2 asphyxiation 2 h post-injection (p.i.). Organs of interest were collected, weighed and counted in a gamma counter. The percentage of the injected dose per gram tissue (% ID/g) was calculated for each tissue. The animal experiments were approved by the local animal welfare committee and performed according to national regulations.

The conditions of series [4]: complexed with ^177Lu or ^205/206Bi; cited from earlier work.

Numbered stars: 1 amine (or outer) side, 2 acyl side, 3 side chain; on linkers, the order of the positions; unused ones are H or OH. Square brackets hold non-standard residues; d marks the D form. Side chains are listed from the residue outwards. Peptide text beside a SMILES is read from it. * marks the point of attachment. DOTA = O=C(O)CN1CCN(CC(=O)O)CCN(CC(=O)*)CCN(CC(=O)O)CC1; NH(2-(imidazol-4-yl)ethyl) = c1ncc(CCN*)[nH]1; Suc = O=C(CCC(=O)[*:2])[*:1] Bounds are passed on as bounds.

somatostatin receptors on AR42J cells (rat), sequence (P30680 whole entry): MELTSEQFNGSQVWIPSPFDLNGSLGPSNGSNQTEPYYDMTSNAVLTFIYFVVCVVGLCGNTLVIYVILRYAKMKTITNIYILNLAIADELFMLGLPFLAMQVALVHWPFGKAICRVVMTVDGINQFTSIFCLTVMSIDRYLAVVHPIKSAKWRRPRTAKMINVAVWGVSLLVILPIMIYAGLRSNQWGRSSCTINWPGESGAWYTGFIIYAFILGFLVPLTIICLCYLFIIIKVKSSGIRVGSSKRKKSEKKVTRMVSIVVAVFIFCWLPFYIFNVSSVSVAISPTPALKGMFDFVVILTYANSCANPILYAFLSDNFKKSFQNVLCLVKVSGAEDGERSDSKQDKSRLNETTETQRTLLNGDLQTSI

For 115In(DTPA-octreotide) (peptide), the IC50 in series [1] worked out at 6.3 nM. Take `C[C@@H](O)[C@@H]1NC(=O)[C@H](CCCCN)NC(=O)[C@@H](Cc2c[nH]c3ccccc23)NC(=O)[C@H](Cc2ccccc2)NC(=O)[C@@H](NC(=O)[C@@H](Cc2ccccc2)NC(=O)CN2CCN(CC(=O)O)CCN(CC(=O)O)CC2)CSSC[C@@H](C(=O)N[C@H](CO)[C@@H](C)O)NC1=O` [Al^18F(IMP 466)]: the “release of ^18F after incubation in human serum” value in series [2] is recorded as “did not show release of ^18F”. As to `NC(=O)[C@@H](CCCCNC(=O)CNC(=O)CCC(=O)NCCc1c[nH]cn1)NC(=O)[C@@H](CCC(=O)O)NC(=O)[C@@H](CCCCNC(=O)CNC(=O)CCC(=O)NCCc1c[nH]cn1)NC(=O)[C@@H](Cc1ccc(O)cc1)NC(=O)CN1CCN(CC(=O)O)CCN(CC(=O)O)CCN(CC(=O)O)CC1` [IMP 288, DOTA-D-Tyr-D-Lys(HSG)-D-Glu-D-Lys(HSG)-NH2] ({DOTA}-[dY][dK]([Gly-Suc-NH(2-(imidazol-4-yl)ethyl)])[dE][dK]([Gly-Suc-NH(2-(imidazol-4-yl)ethyl)])-NH2), in series [3], the “time to maximum accretion in the tumor” value was ≤ 1 h.

Take “69Ga(IMP 466): NOTA-D-Phe-Cys-Phe-D-Trp-Lys-Thr-Cys-Throl complexed with 69Ga (peptide)”: the IC50 in series [1] came to 13 nM. With “17 residue synthetic AD, SEQ ID NO: 8 QIEYLAKQIVDNAIQQA [AKAP-IS]”, in the series with RIIα dimers, the Kd is 0.4 nM. Regarding “Al19F(IMP 466): NOTA-D-Phe-Cys-Phe-D-Trp-Lys-Thr-Cys-Throl complexed with aluminium fluoride (19F) (peptide)”, in series [1], the IC50 was determined as 3.6 nM. `[18F][Al+2]` [[Al^18F]]: the “uptake in the bone” value in series [3] stood at 50.9±11.4 % ID/g. This molecule showed a bone uptake in the series on AR42J tumors of 36.9±5.0 % ID/g. Consider `O=C(O)CN1CCN(CC(=O)O)CCN(CC(Cc2ccc([N+](=O)[O-])cc2)N(CC(=O)O)CC(=O)O)CC1` (stereo not drawn) [C-NETA], for which the stability in serum entry in series [4] is given as “up to 14 days”.

The IC50 is the concentration that inhibits the measured activity by half.

(Values after US20170007727A1, “METHODS OF IMAGING WITH Ga-68 LABELED MOLECULES” (Immunomedics, Inc., priority 2015, published 2017).)
